Counter-ions that a name gives are not always drawn.
Columns and labels:
[1] = test system: bacterial strains that express the class D cephalosporinase OXA-15; assay: Synergy MIC / standard BLI potentiation MIC assay, strains expressing OXA-15;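 further: more active means a lower MIC or sMIC than Avibactam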; assay type: cell-based, E. coli; conditions: in the presence of a β-lactam; comparator Avibactam (CCC)
Outline: (§1)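 CLSI broth microdilution in CAMHB, ~10^5 CFU/mL, 18–20 h at 37 °C with aeration; engineered E. coli kept on 25 μg/mL tetracycline. Potentiation: β-lactam 128–0.13 μg/mL with BLI fixed at 4 μg/mL; synergy MIC: BLI serially diluted with fixed β-lactam. MIC is the lowest concentration without visible turbidity.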

[2] = test system: bacterial strains that express KPC β-lactamases; assay: Synergy MIC / standard BLI potentiation MIC assay, strains expressing KPC β-lactamases; assay type: cell-based; conditions: for at least one KPC strain and/or a better spectrum of activity against KPC strains than Avibactam; in the presence of a β-lactam
Outline: as §1

With O=C1N2C[C@@H](CC[C@H]2c2nnc(CCC3CNC3)o2)N1OS(=O)(=O)O [Compound 742, (2S,5R)-2-(5-(2-(azetidin-3-yl)ethyl)-1,3,4-oxadiazol-2-yl)-7-oxo-1,6-diazabicyclo[3.2.1]octan-6-yl hydrogen sulfate] the “activity against bacterial strains that express OXA-15 β-lactamase compared with Avibactam” value [1] was “more active than Avibactam” and the “activity against bacterial strains that express KPC β-lactamase compared with Avibactam” value [2] was “more active than Avibactam”.

In the case of O=C1N2C[C@@H](CC[C@H]2c2nnc(CCCCNC3CCNCC3)o2)N1OS(=O)(=O)O [Compound 772, (2S,5R)-7-oxo-2-(5-(4-(piperidin-4-ylamino)butyl)-1,3,4-oxadiazol-2-yl)-1,6-diazabicyclo[3.2.1]octan-6-yl hydrogen sulfate], the “activity against bacterial strains that express OXA-15 β-lactamase compared with Avibactam” value [1] is reported as “more active than Avibactam” and the “activity against bacterial strains that express KPC β-lactamase compared with Avibactam” value [2] is reported as “more active than Avibactam”.

In the case of NCCCc1nnc([C@@H]2CC[C@@H]3CN2C(=O)N3OS(=O)(=O)O)o1 [Compound 720, (2S,5R)-2-(5-(3-aminopropyl)-1,3,4-oxadiazol-2-yl)-7-oxo-1,6-diazabicyclo[3.2.1]octan-6-yl hydrogen sulfate], the “activity against bacterial strains that express OXA-15 β-lactamase compared with Avibactam” value [1] is reported as “more active than Avibactam” and the “activity against bacterial strains that express KPC β-lactamase compared with Avibactam” value [2] is reported as “more active than Avibactam”.

NC(=O)c1nnc([C@@H]2CC[C@@H]3CN2C(=O)N3OS(=O)(=O)O)o1 [Compound 706, (2S,5R)-2-(5-carbamoyl-1,3,4-oxadiazol-2-yl)-7-oxo-1,6-diaza-bicyclo[3.2.1]octan-6-yl hydrogen sulfate] was tested, and the “activity against bacterial strains that express OXA-15 β-lactamase compared with Avibactam” value [1] was “more active than Avibactam” and the “activity against bacterial strains that express KPC β-lactamase compared with Avibactam” value [2] was “more active than Avibactam”.

N[C@H]1CN[C@@H](c2nnc([C@@H]3CC[C@@H]4CN3C(=O)N4OS(=O)(=O)O)o2)C1 [Compound 761, (2S,5R)-2-(5-((2R,4R)-4-aminopyrrolidin-2-yl)-1,3,4-oxadiazol-2-yl)-7-oxo-1,6-diazabicyclo[3.2.1]octan-6-yl hydrogen sulfate] was tested, and the “activity against bacterial strains that express OXA-15 β-lactamase compared with Avibactam” value [1] was “more active than Avibactam” and the “activity against bacterial strains that express KPC β-lactamase compared with Avibactam” value [2] was “more active than Avibactam”.

With N=C(N)NCCc1nnc([C@@H]2CC[C@@H]3CN2C(=O)N3OS(=O)(=O)O)o1 [Compound 705, (2S,5R)-2-(5-(2-guanidinoethyl)-1,3,4-oxadiazol-2-yl)-7-oxo-1,6-diazabicyclo[3.2.1]octan-6-yl hydrogen sulfate] the “activity against bacterial strains that express OXA-15 β-lactamase compared with Avibactam” value [1] was “more active than Avibactam” and the “activity against bacterial strains that express KPC β-lactamase compared with Avibactam” value [2] was “more active than Avibactam”.

O=C1N2C[C@@H](CC[C@H]2c2nnc(CN[C@@H]3CCNC3)o2)N1OS(=O)(=O)O [Compound 766, (2S,5R)-7-oxo-2-(5-(((R)-pyrrolidin-3-ylamino)methyl)-1,3,4-oxadiazol-2-yl)-1,6-diazabicyclo[3.2.1]octan-6-yl hydrogen sulfate] was tested, and the “activity against bacterial strains that express OXA-15 β-lactamase compared with Avibactam” value [1] was “more active than Avibactam” and the “activity against bacterial strains that express KPC β-lactamase compared with Avibactam” value [2] was “more active than Avibactam”.
